Source: patent publication US12240844B2 (Voronoi, Inc., priority 2019, dated 2025)

How the values were obtained:
[1] = target: T1, human GST-DYRK1A (full length) (Homo sapiens, UniProt Q13627); test: GST-DYRK1A enzyme inhibition, ADP-Glo kinase assay; assay type: biochemical; conditions: read-out: DYRK1 IC50
T1 construct: purified human GST-DYRK1A (full length, Thermo scientifics) enzyme; GST; purchased Thermo scientifics
Procedure, shortened: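 ADP-Glo luminescence quantified kinase activity after a 1 h, 25° C reaction of 10 ng full-length GST-tagged human DYRK1A, substrate and 10 uM ATP in Tris-HCl buffer pH 7.4 with MgCl2, BSA and DTT. Triplicate IC50 values (nM) calculated relative to untreated solvent control.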

IL-6 = IL-6 secretion inhibition in LPS-treated THP-1 cells (ELISA); assay type: cell-based; conditions: Homo sapiens, compound 0.5 μM, LPS 500 ng/ml, 24 hours, read-out: THP1/IL6 (% inhib)
Procedure, shortened: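 Human monocytic THP-1 cells were pre-cultured 16 h at 37° C., then treated with compound at 0.5 μM final, followed by LPS at 500 ng/ml final. After 24 h, IL-6 and TNF-α in culture supernatant were quantified by ELISA with absorbance read at 450 nm.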

human DYRK1A and Tau = test: Tau phosphorylation inhibition, ClariCELL Kinase Cell-Based Assay (Carnabio)
Procedure, shortened: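 HEK293 cells transiently expressing human DYRK1A and Tau were exposed to compound, then lysed. Released Tau was captured on plate and its phosphorylation quantified by ELISA with a phospho-Tau-specific antibody.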

| Structure (SMILES) | IC50 [1] | inhibition at 0.5 µM (IL-6) | inhibition at 0.25 µM (human DYRK1A and Tau) | inhibition at 0.5 µM (human DYRK1A and Tau) | inhibition at 1 µM (human DYRK1A and Tau) |
| --- | --- | --- | --- | --- | --- |
| CCNc1cc(Nc2ccc(C(=O)N3CCC(N4C[C@H]5C[C@@H]4CO5)CC3)c3c2OCC3)nc2[nH]cc(C(F)(F)F)c12 [Example 244, (4-((1R,4R)-2-oxa-5-azabicyclo[2.2.1]heptan-5-yl)piperidin-1-yl)(7-((4-(ethylamino)-3-(trifluoromethyl)-1H-pyrrolo[2,3-b]pyridin-6-yl)amino)-2,3-dihydrobenzofuran-4-yl)methanone] | < 100 nM | 40.1% | 58% | 86% | 107% |
| CCNc1cc(Nc2ccc(C(=O)N3CCN(C4COC4)CC3)c3c2OCCO3)nc2[nH]cc(C(F)(F)F)c12 [Example 173, (8-((4-(ethylamino)-3-(trifluoromethyl)-1H-pyrrolo[2,3-b]pyridin-6-yl)amino)-2,3-dihydrobenzo[b] [1,4]dioxin-5-yl)(4-(oxetan-3-yl)piperazin-1-yl)methanone] | < 100 nM | 9.1% | 5.2% | 28.2% | 46.4% |
| CCNc1cc(Nc2ccc(C(=O)N3CCN(C4COC4)CC3)c3c2OCC3)nc2[nH]cc(C(F)(F)F)c12 [Example 248, (7-((4-(ethylamino)-3-(trifluoromethyl)-1H-pyrrolo[2,3-b]pyridin-6-yl)amino)-2,3-dihydrobenzofuran-4-yl)(4-(oxetan-3-yl)piperazin-1-yl)methanone] | < 100 nM | 48.4% | 53.5% | 76% | 95.1% |
